Experimental data reported in ChEMBL document CHEMBL1201862, “PubChem BioAssay data set” (2004).
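Results reflect a 48-hour exposure of cells in 96-well plates to compound at five concentrations. Here, GI50 denotes the concentration required for 50% inhibition of growth.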 Calls of active or inactive are those of the source. Cut-off read from the data, not from the text of the source: active = GI50 up to about 1.1 µM and inactive = higher.

Legend:
Assay in all cases: NCI anticancer screen, dose series, 48 h
CCRF-CEM = system: CCRF-CEM
DU-145 = system: DU-145
HCC 2998 = system: HCC 2998
HCT-15 = system: HCT-15
HOP-92 = system: HOP-92
Hs-578T = system: Hs-578T
KM12 = system: KM12
LOX IMVI = system: LOX IMVI
MDA-MB-231 = system: MDA-MB-231
NCI-H522 = system: NCI-H522
NCI/ADR-RES = system: NCI/ADR-RES
OVCAR-8 = system: OVCAR-8
RPMI-8226 = system: RPMI-8226
SF-268 = system: SF-268
SF-295 = system: SF-295
SNB-75 = system: SNB-75
U-251 = system: U-251
UACC-62 = system: UACC-62
RXF 393 = system: RXF 393

| Structure (SMILES) | GI50 (CCRF-CEM) | GI50 (DU-145) | GI50 (HCC 2998) | GI50 (HCT-15) [µM] | GI50 (HOP-92) | GI50 (Hs-578T) | GI50 (KM12) | GI50 (LOX IMVI) | GI50 (MDA-MB-231) | GI50 (NCI-H522) | GI50 (NCI/ADR-RES) | GI50 (OVCAR-8) | GI50 (RPMI-8226) | GI50 (SF-268) | GI50 (SF-295) | GI50 (SNB-75) | GI50 (U-251) | GI50 (UACC-62) | GI50 (RXF 393) |
| --- | --- | --- | --- | --- | --- | --- | --- | --- | --- | --- | --- | --- | --- | --- | --- | --- | --- | --- | --- |
| Cc1cnc2sn(-c3ccc(Br)cc3)c(=O)c2c1 | 24.4 µM (inactive) | 50.5 µM (inactive) | 22.7 µM (inactive) | 26.6 | 26.9 µM (inactive) | 30.7 µM (inactive) | 74.8 µM (inactive) | 23.3 µM (inactive) | 30.5 µM (inactive) | 2.37 µM (inactive) | 70.1 µM (inactive) | 62.5 µM (inactive) | 33.2 µM (inactive) | 38.7 µM (inactive) | 26.5 µM (inactive) | 84.9 µM (inactive) | 27.1 µM (inactive) | 33.4 µM (inactive) | – |
| C[C@@H]1S[C@H](c2c(F)cccc2Cl)n2c1nc1ccccc12 | 10.6 µM (inactive) | 27.2 µM (inactive) | 13.6 µM (inactive) | 6.76 | > 10 µM (inactive) | 20.6 µM (inactive) | 5.53 µM (inactive) | 12.5 µM (inactive) | 11.5 µM (inactive) | – | 14.1 µM (inactive) | 19 µM (inactive) | 4.44 µM (inactive) | 15.1 µM (inactive) | 18.5 µM (inactive) | 16.5 µM (inactive) | 10.8 µM (inactive) | 8.81 µM (inactive) | 14.5 µM (inactive) |
| NC(=O)NN=C1Cc2ccccc2C1 | > 100 µM (inactive) | > 100 µM (inactive) | > 100 µM (inactive) | > 100 | > 100 µM (inactive) | > 100 µM (inactive) | > 100 µM (inactive) | > 100 µM (inactive) | > 100 µM (inactive) | > 100 µM (inactive) | > 100 µM (inactive) | > 100 µM (inactive) | > 100 µM (inactive) | > 100 µM (inactive) | > 100 µM (inactive) | > 100 µM (inactive) | > 100 µM (inactive) | > 100 µM (inactive) | > 100 µM (inactive) |
| CN(C)Cc1cc(C(=O)/C=C/c2ccc(/C=C/C(=O)c3cc(CN(C)C)c(O)c(CN(C)C)c3)cc2)cc(CN(C)C)c1O | 9.57 µM (inactive) | 38.5 µM (inactive) | 16.9 µM (inactive) | 29.6 | 24.2 µM (inactive) | 58.2 µM (inactive) | 17.7 µM (inactive) | 11.9 µM (inactive) | 20.3 µM (inactive) | 10.5 µM (inactive) | > 100 µM (inactive) | 49.3 µM (inactive) | 23.4 µM (inactive) | 27.5 µM (inactive) | 29.2 µM (inactive) | > 100 µM (inactive) | 15.6 µM (inactive) | 25.9 µM (inactive) | 26.7 µM (inactive) |
| CCCCCCc1cc2cc(-c3cn4ccccc4n3)c(=O)oc2cc1O | 19.5 µM (inactive) | 5.11 µM (inactive) | 18.4 µM (inactive) | 5.66 | 15.5 µM (inactive) | 4.14 µM (inactive) | 16.1 µM (inactive) | 4.72 µM (inactive) | 3.27 µM (inactive) | 5.37 µM (inactive) | 5.26 µM (inactive) | 6.3 µM (inactive) | 3.68 µM (inactive) | 2.32 µM (inactive) | 15.1 µM (inactive) | 3.14 µM (inactive) | 3.56 µM (inactive) | 8.17 µM (inactive) | 4.14 µM (inactive) |
| CC12CC3(O)OC(O1)C1(COC(=O)c4ccccc4)C3CC21OC1OC(CO)C(O)C(O)C1O (stereo unspecified) | > 100 µM (inactive) | > 100 µM (inactive) | > 100 µM (inactive) | > 100 | > 100 µM (inactive) | > 100 µM (inactive) | > 100 µM (inactive) | > 100 µM (inactive) | > 100 µM (inactive) | > 100 µM (inactive) | > 100 µM (inactive) | > 100 µM (inactive) | > 100 µM (inactive) | > 100 µM (inactive) | > 100 µM (inactive) | – | > 100 µM (inactive) | > 100 µM (inactive) | > 100 µM (inactive) |
| CCOC(=O)CN1C(=O)c2ccc(NC(=O)C(=O)O)cc2S1(=O)=O | > 100 µM (inactive) | > 100 µM (inactive) | > 100 µM (inactive) | > 100 | > 100 µM (inactive) | > 100 µM (inactive) | > 100 µM (inactive) | > 100 µM (inactive) | > 100 µM (inactive) | > 100 µM (inactive) | > 100 µM (inactive) | > 100 µM (inactive) | > 100 µM (inactive) | > 100 µM (inactive) | > 100 µM (inactive) | – | > 100 µM (inactive) | > 100 µM (inactive) | > 100 µM (inactive) |
| C=CC1(CBr)CCC(C(C)(C)Br)O1 (stereo unspecified) | 2.08 µM (inactive) | 10 µM (inactive) | 16.6 µM (inactive) | 6.64 | 14.9 µM (inactive) | 12.6 µM (inactive) | 12.2 µM (inactive) | 1.74 µM (inactive) | 13.2 µM (inactive) | 2.51 µM (inactive) | 10.1 µM (inactive) | 2.9 µM (inactive) | 1.79 µM (inactive) | 15.7 µM (inactive) | 12.3 µM (inactive) | 5.65 µM (inactive) | 6.27 µM (inactive) | 10.3 µM (inactive) | 13.7 µM (inactive) |
| COc1cc(C(c2cccc3ccccc23)N2C(=O)CCC2C(=O)NCc2ccccc2)cc(OC)c1OC (stereo unspecified) | 93.3 µM (inactive) | > 100 µM (inactive) | > 100 µM (inactive) | > 100 | > 100 µM (inactive) | 83.6 µM (inactive) | > 100 µM (inactive) | > 100 µM (inactive) | > 100 µM (inactive) | > 100 µM (inactive) | > 100 µM (inactive) | > 100 µM (inactive) | 55.3 µM (inactive) | > 100 µM (inactive) | > 100 µM (inactive) | – | > 100 µM (inactive) | 64.6 µM (inactive) | > 100 µM (inactive) |
| O=S(=O)(NC(c1ccccc1)(c1cc2ccccc2[nH]1)c1cc2ccccc2n1S(=O)(=O)c1ccccc1)c1ccccc1 (stereo unspecified) | > 100 µM (inactive) | > 100 µM (inactive) | > 100 µM (inactive) | > 100 | > 100 µM (inactive) | > 100 µM (inactive) | > 100 µM (inactive) | > 100 µM (inactive) | > 100 µM (inactive) | – | > 100 µM (inactive) | > 100 µM (inactive) | 52.1 µM (inactive) | > 100 µM (inactive) | > 100 µM (inactive) | > 100 µM (inactive) | > 100 µM (inactive) | > 100 µM (inactive) | – |
| CCCSC1=N/C(=C\c2ccco2)C(=O)N1 | – | > 100 µM (inactive) | > 100 µM (inactive) | > 100 | > 100 µM (inactive) | > 100 µM (inactive) | > 100 µM (inactive) | > 100 µM (inactive) | > 100 µM (inactive) | > 100 µM (inactive) | > 100 µM (inactive) | > 100 µM (inactive) | > 100 µM (inactive) | > 100 µM (inactive) | > 100 µM (inactive) | 97.7 µM (inactive) | > 100 µM (inactive) | > 100 µM (inactive) | > 100 µM (inactive) |
| c1csc(-c2cscc2-c2ccsc2)c1 | 41.8 µM (inactive) | > 100 µM (inactive) | 28.4 µM (inactive) | 30.3 | > 86.5 µM (inactive) | 20.4 µM (inactive) | 32.1 µM (inactive) | 41.1 µM (inactive) | > 100 µM (inactive) | 22.2 µM (inactive) | 48.1 µM (inactive) | 98.2 µM (inactive) | 34 µM (inactive) | 75 µM (inactive) | > 66.8 µM (inactive) | > 52.1 µM (inactive) | > 100 µM (inactive) | 70.3 µM (inactive) | 20.9 µM (inactive) |
| Cc1ccc(/N=N/c2c(O)ccc3cc(S(=O)(=O)O)cc(S(=O)(=O)O)c23)cc1 | > 100 µM (inactive) | > 100 µM (inactive) | > 100 µM (inactive) | > 100 | > 100 µM (inactive) | > 100 µM (inactive) | > 100 µM (inactive) | – | > 100 µM (inactive) | > 100 µM (inactive) | > 100 µM (inactive) | > 100 µM (inactive) | < 0.01 µM (active) | > 100 µM (inactive) | > 100 µM (inactive) | > 100 µM (inactive) | > 100 µM (inactive) | > 100 µM (inactive) | > 100 µM (inactive) |
| C[N+](C)(C)[BH-](Br)C(O)O (stereo unspecified) | > 100 µM (inactive) | > 100 µM (inactive) | > 100 µM (inactive) | > 100 | > 100 µM (inactive) | > 100 µM (inactive) | > 100 µM (inactive) | > 100 µM (inactive) | > 100 µM (inactive) | > 100 µM (inactive) | > 100 µM (inactive) | – | – | > 100 µM (inactive) | > 100 µM (inactive) | 40.6 µM (inactive) | > 100 µM (inactive) | > 100 µM (inactive) | > 100 µM (inactive) |
| O=c1c(C(c2ccc(O)cc2)c2c(O)oc3ccccc3c2=O)c(O)oc2ccccc12 | 74.3 µM (inactive) | > 100 µM (inactive) | 46.3 µM (inactive) | 36.6 | 78.5 µM (inactive) | > 100 µM (inactive) | > 100 µM (inactive) | 45.2 µM (inactive) | 31.6 µM (inactive) | 22.5 µM (inactive) | > 100 µM (inactive) | 48.8 µM (inactive) | – | 16.2 µM (inactive) | – | 30.9 µM (inactive) | 34.9 µM (inactive) | 79.1 µM (inactive) | – |
